Results as given in ChEMBL document CHEMBL1132209, “Design, synthesis, and activity of 2,6-diphenoxypyridine-derived factor Xa inhibitors” (J Med Chem, 1999).

What was measured:
[1] = biological target: Prothrombin (Homo sapiens, UniProt P00734); assay: Compound was tested for inhibition activity against human thrombin (FIIa)
[2] = biological target: T1, Serine protease 1 (Bos taurus, UniProt P00760); assay: Compound was tested for inhibition activity against bovine trypsin.
T1 sequence (P00760 whole entry): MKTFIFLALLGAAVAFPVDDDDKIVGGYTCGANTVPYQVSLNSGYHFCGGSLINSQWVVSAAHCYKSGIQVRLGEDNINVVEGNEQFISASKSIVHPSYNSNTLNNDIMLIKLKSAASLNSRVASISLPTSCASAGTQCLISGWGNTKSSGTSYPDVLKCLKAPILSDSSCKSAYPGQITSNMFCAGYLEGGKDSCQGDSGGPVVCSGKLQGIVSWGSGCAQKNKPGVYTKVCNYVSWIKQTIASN

[3] = biological target: Coagulation factor X (Homo sapiens, UniProt P00742); assay: Compound was tested for inhibition activity against Coagulation factor X
Chain of Coagulation factor X (P00742 41-179 limits assumed): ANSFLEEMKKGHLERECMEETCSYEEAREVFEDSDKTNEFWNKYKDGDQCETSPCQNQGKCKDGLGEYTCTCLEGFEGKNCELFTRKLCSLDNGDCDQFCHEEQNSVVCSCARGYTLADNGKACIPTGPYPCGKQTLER
Chain of Coagulation factor X (P00742 235-488 limits assumed): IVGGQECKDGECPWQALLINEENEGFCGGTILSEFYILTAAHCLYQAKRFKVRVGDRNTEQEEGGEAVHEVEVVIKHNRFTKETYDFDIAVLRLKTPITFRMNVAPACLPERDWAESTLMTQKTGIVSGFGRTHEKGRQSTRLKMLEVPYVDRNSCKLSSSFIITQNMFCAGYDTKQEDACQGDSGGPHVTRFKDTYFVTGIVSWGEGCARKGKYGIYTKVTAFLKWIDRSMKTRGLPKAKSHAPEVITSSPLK

Structure (SMILES)	Ki [1]	Ki [2]	Ki [3]
N=C(N)c1cccc(Oc2ccc(NC(=O)c3ccccc3)c(Oc3cccc(C(=N)N)c3)n2)c1	3400 nM	260 nM	120 nM
CNC(=O)c1ccc(Oc2cccc(C(=N)N)c2)nc1Oc1cccc(C(=N)N)c1	> 5000 nM	1400 nM	230 nM
N=C(N)c1cccc(Oc2cc(C(N)=O)cc(Oc3cccc(C(=N)N)c3)n2)c1	6000 nM	780 nM	42 nM
N=C(N)c1cccc(Oc2ccc(NC(=O)NCC(N)=O)c(Oc3cccc(C(=N)N)c3)n2)c1	> 5000 nM	280 nM	110 nM
N=C(N)c1cccc(Oc2ccc(NC(=O)Nc3ccccc3)c(Oc3cccc(C(=N)N)c3)n2)c1	3400 nM	100 nM	62 nM
N=C(N)c1cccc(Oc2ccnc(Oc3cccc(C(=N)N)c3)n2)c1	> 5000 nM	760 nM	120 nM
N=C(N)c1cccc(Oc2cncc(Oc3cccc(C(=N)N)c3)n2)c1	> 5000 nM	970 nM	51 nM
N=C(N)c1cccc(Oc2ccc(C(=O)O)c(Oc3cccc(C(=N)N)c3)n2)c1	> 100000 nM	2200 nM	95 nM
N=C(N)c1cccc(Oc2ccc(N)c(Oc3cccc(C(=N)N)c3)n2)c1	> 5000 nM	1300 nM	53 nM
N=C(N)c1ccccc1Oc1cccc(Oc2ccccc2C(=N)N)n1	–	–	> 5000 nM
CCOC(=O)c1ccc(Oc2cccc(C(=N)N)c2)nc1Oc1cccc(C(=N)N)c1	> 5000 nM	920 nM	190 nM
N=C(N)c1ccc(Oc2cccc(Oc3ccc(C(=N)N)cc3)c2)cc1	4900 nM	1000 nM	970 nM
N=C(N)c1cccc(Oc2ccc(C(N)=O)c(Oc3cccc(C(=N)N)c3)n2)c1	> 5000 nM	1200 nM	600 nM
N=C(N)c1ccc(/C=C2\CCCC/C(=C\c3ccc(C(=N)N)cc3)C2=O)cc1	530 nM	33 nM	0.66 nM
CNC(=O)c1cc(Oc2cccc(C(=N)N)c2)nc(Oc2cccc(C(=N)N)c2)c1	4200 nM	750 nM	60 nM
CS(=O)(=O)Nc1ccc(Oc2cccc(C(=N)N)c2)nc1Oc1cccc(C(=N)N)c1	> 5000 nM	1900 nM	130 nM

Structure (SMILES)	Ki [1]	Ki [2]	Ki [3]
N=C(N)c1ccc(Oc2cc(Oc3ccc(C(=N)N)cc3)c(Cl)cc2Cl)cc1	2500 nM	1800 nM	1100 nM
CCOC(=O)c1cc(Oc2cccc(C(=N)N)c2)nc(Oc2cccc(C(=N)N)c2)c1	11000 nM	800 nM	34 nM
COc1c(F)c(Oc2cccc(C(=N)N)c2)nc(Oc2cccc(C(=N)N)c2)c1F	> 5000 nM	1100 nM	23 nM
CC(=O)Nc1ccc(Oc2cccc(C(=N)N)c2)nc1Oc1cccc(C(=N)N)c1	> 5000 nM	1200 nM	52 nM
N=C(N)c1cccc(Oc2ccc(C(=O)NCC(N)=O)c(Oc3cccc(C(=N)N)c3)n2)c1	> 5000 nM	2000 nM	690 nM
N=C(N)c1cccc(Oc2cc(Oc3ccccc3C(=N)N)ccc2N)c1	–	–	1100 nM
Cc1c(F)c(N(C)c2cccc(C(=N)N)c2)nc(N(C)c2cccc(C(=N)N)c2)c1F	360 nM	360 nM	98 nM
N=C(N)c1cccc(Oc2ccc(C(F)(F)F)c(Oc3cccc(C(=N)N)c3)n2)c1	> 5000 nM	780 nM	110 nM
Cc1c(F)c(Nc2cccc(C(=N)N)c2)nc(Oc2cccc(C(=N)N)c2)c1F	> 5000 nM	3100 nM	660 nM
N=C(N)c1cccc(Oc2c[nH]c(=O)c(Oc3cccc(C(=N)N)c3)n2)c1	> 5000 nM	760 nM	190 nM
N=C(N)c1cccc(Oc2cc(Oc3ccccc3C(=N)N)ccc2[N+](=O)[O-])c1	–	–	300 nM
CNC(=O)Nc1ccc(Oc2cccc(C(=N)N)c2)nc1Oc1cccc(C(=N)N)c1	> 5000 nM	840 nM	59 nM
N=C(N)c1ccc(Oc2cccc(Oc3ccccc3C(=N)N)n2)cc1	1200 nM	1900 nM	130 nM
Cc1c(F)c(Oc2cccc(C(=N)N)c2)nc(N(C)c2cccc(C(=N)N)c2)c1F	1900 nM	690 nM	12 nM
CN(C)C(=O)c1ccc(Oc2cccc(C(=N)N)c2)nc1Oc1cccc(C(=N)N)c1	> 5000 nM	780 nM	32 nM
